Legend:
[1] = target: T1, Melatonin receptor type 1A (Homo sapiens, UniProt P48039); assay: Displacement of 2-[125I]iodomelatonin from human MT1 receptor expressed in CHO cell membranes after 120 mins
[2] = target: T2, Melatonin receptor type 1B (Homo sapiens, UniProt P49286); assay: Displacement of 2-[125I]iodomelatonin from human MT2 receptor expressed in CHO cell membranes after 120 mins
T2 sequence (P49286 whole entry): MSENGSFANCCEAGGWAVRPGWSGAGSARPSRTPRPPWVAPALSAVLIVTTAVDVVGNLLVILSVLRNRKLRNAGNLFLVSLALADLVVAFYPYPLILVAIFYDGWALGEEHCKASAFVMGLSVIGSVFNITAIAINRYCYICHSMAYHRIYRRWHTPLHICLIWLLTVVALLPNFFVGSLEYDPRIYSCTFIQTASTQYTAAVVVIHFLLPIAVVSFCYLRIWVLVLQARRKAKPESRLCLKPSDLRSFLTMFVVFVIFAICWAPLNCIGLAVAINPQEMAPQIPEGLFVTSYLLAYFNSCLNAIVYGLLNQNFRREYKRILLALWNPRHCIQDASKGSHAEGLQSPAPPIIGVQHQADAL

[3] = target: T1, Melatonin receptor type 1A; assay: Intrinsic activity at human MT1 receptor expressed in CHO cell membranes after 1 hr by [35S]GTPgammaS binding assay; format: functional
[4] = target: T3, 5-hydroxytryptamine receptor 2C (Homo sapiens, UniProt P28335); assay: Binding affinity to 5-HT2C receptor (unknown origin)
T3 sequence (P28335 whole entry): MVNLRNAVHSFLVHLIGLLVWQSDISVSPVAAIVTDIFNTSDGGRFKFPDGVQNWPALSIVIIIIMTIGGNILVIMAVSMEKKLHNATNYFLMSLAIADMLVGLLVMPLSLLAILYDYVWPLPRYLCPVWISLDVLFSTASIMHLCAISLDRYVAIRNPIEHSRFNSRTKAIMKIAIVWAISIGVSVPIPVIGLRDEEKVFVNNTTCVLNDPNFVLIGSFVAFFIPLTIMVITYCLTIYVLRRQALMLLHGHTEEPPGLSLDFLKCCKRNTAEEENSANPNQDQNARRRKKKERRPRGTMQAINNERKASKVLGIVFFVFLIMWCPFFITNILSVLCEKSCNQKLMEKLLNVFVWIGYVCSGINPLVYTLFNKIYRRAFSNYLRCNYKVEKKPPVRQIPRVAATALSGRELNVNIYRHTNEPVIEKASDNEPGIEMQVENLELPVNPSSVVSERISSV

[5] = target: T2, Melatonin receptor type 1B; assay: Intrinsic activity at human MT2 receptor expressed in CHO cell membranes after 1 hr by [35S]GTPgammaS binding assay; format: functional
[6] = species: Homo sapiens; assay: Selectivity ratio of Ki for human MT1 receptor to Ki for human MT2 receptor

T1 sequence (P48039 whole entry): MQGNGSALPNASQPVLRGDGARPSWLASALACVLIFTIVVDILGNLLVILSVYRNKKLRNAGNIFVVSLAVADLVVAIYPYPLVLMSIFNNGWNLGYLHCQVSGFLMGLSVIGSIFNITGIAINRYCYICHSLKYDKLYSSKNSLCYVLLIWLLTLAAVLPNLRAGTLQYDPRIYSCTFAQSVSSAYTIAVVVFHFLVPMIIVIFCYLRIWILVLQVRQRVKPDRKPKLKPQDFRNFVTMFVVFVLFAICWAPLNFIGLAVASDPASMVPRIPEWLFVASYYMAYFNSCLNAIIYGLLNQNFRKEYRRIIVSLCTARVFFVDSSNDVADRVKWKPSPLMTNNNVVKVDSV

SMILES	Ki [1]	Ki [2]	EC50 [3]	Ki [4]	EC50 [5]	Ratio Ki [6]
COc1ccc2ccc3occ(CNC(=O)CF)c3c2c1	9.9 nM	2.1 nM	29 nM	> 10000 nM	3.4 nM	–
COc1ccc2ccc3oc(CCNC(C)=O)cc3c2c1	10 nM	1.7 nM	> 10000 nM	> 10000 nM	> 10000 nM	–
COc1ccc2ccc3oc(CNC(=O)C4CC4)cc3c2c1	1.9 nM	0.6 nM	1 nM	> 10000 nM	0.98 nM	–
COc1ccc2ccc3occ(CCNC(C)=O)c3c2c1	2.8 nM	0.09 nM	4.6 nM	140 nM	0.7 nM	31
CNC(=O)NCc1cc2c(ccc3ccc(OC)cc32)o1	–	–	–	> 10000 nM	–	–
CCNC(=O)NCc1cc2c(ccc3ccc(OC)cc32)o1	17 nM	4.2 nM	> 10000 nM	> 10000 nM	10 nM	–
COc1ccc2ccc3oc(CNC(=O)CF)cc3c2c1	5.7 nM	0.7 nM	9.5 nM	> 10000 nM	1.1 nM	–
CCNC(=S)NCc1cc2c(ccc3ccc(OC)cc32)o1	140 nM	7 nM	–	730 nM	–	–
CCNC(=O)NCCc1cc2c(ccc3ccc(OC)cc32)o1	210 nM	46 nM	–	> 10000 nM	–	–
COc1ccc2ccc3occ(CNC(C)=O)c3c2c1	4.6 nM	0.7 nM	4.8 nM	> 10000 nM	1.4 nM	–
COc1ccc2ccc3occ(CNC(=O)C(C)C)c3c2c1	158 nM	24 nM	8.1 nM	> 10000 nM	8.8 nM	–
COc1ccc2ccc3oc(CCNC(=O)C4CC4)cc3c2c1	73 nM	11 nM	> 10000 nM	> 10000 nM	5.8 nM	–
COc1ccc2ccc3occ(CCNC(=O)C4CC4)c3c2c1	236 nM	13.3 nM	5.2 nM	> 1000 nM	3.2 nM	–
CCNC(=O)NCCc1coc2ccc3ccc(OC)cc3c12	157 nM	226 nM	75 nM	> 1000 nM	6.2 nM	–
COc1ccc2ccc3oc(CNC(C)=O)cc3c2c1	2.1 nM	0.4 nM	7.7 nM	> 10000 nM	0.98 nM	–
COc1ccc2ccc3occ(CNC(=O)C4CC4)c3c2c1	20 nM	15 nM	1 nM	> 10000 nM	8.8 nM	–
CNC(=S)NCc1cc2c(ccc3ccc(OC)cc32)o1	43 nM	0.8 nM	–	> 10000 nM	–	–

Reference: ChEMBL document CHEMBL3758099, “Melatonergic ligands: Design, synthesis and pharmacological evaluation of novel series of naphthofuranic derivatives” (Eur J Med Chem, 2016)
